# Data published in patent US12240830B2, “Fused ring heteroaryl compounds and use thereof” (BiSiChem Co., Ltd., priority 2021, dated 2025).
# Target: T1, ALK5 (Homo sapiens, UniProt P36897)
# T1 construct: Cells were seeded at 3×10^4/well in 24-well plates were transiently transfected with 500 ng of (CAGA)-12-luciferase reporter construct; endogenous in cells; host or cells: Hs578T (ATCC HTB-22)
# T1 sequence (P36897 34-503): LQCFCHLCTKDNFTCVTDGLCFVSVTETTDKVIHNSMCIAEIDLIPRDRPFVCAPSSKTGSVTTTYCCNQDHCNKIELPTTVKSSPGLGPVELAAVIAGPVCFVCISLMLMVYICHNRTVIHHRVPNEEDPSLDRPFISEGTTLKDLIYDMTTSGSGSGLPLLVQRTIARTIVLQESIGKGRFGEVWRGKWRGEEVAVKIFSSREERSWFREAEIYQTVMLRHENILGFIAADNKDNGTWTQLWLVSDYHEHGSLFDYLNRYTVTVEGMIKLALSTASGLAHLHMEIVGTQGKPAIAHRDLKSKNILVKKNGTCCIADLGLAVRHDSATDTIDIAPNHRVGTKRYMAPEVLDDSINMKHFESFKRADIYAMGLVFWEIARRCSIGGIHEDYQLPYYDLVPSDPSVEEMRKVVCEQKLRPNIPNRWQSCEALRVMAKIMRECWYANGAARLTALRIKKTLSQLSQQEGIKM
# Test: Cell-based luciferase reporter assay for ALK5 activity
# Details: (CAGA)-12-luciferase reporter, cells stimulated with 2 ng/ml recombinant TGF-β1 for 12 hours; Hs578T cells; read-out: Relative luciferase activity: IC50 value
# Protocol: Human cancer cell lines Hs578T (ATCC® HTB-22™) cells were grown in DMEM (Dulbecco's modified Eagle's medium) supplemented with 10% fetal bovine serum and 1% mixture of penicillin and streptomycin (Gibco). Cells were maintained at 37° C. in a humidified 5% CO2− atmosphere.
# Cell-Based Luciferase Reporter Assay for ALK5 Activity
# Cells were seeded at 3×10^4/well in 24-well plates were transiently transfected with 500 ng of (CAGA)-12-luciferase reporter construct and 5 ng of pRL-TK Renilla luciferase vector (Promega, Madison, WI), an internal control for transfection efficiency, using Lipofectamine 3000 reagent (Thermo Fisher Scientific, Waltham, USA). After 24 h transfection, the cells were pre-treated with ALK5 inhibitor in dose-dependent manner. And then, Cells stimulated with 2 ng/ml recombinant TGF-β1 for 12 hours. After the stimulation, the firefly and Renilla luciferase activities were measured by Dual-Luciferase Reporter Assay (Promega). […]
row,SMILES,IC50 [nM]
1,"Cc1cccc(-c2[nH]c(NCc3cccc(F)c3)nc2-c2ccc3c(cnn3C(C)(C)CO)c2)n1 [Example 26, 2-(5-(2-((3-fluorobenzyl)amino)-5-(6-methylpyridin-2-yl)-1H-imidazol-4-yl)-1H-indazol-1-yl)-2-methylpropan-1-ol]",> 100
2,"Cc1cccc(-c2[nH]c(NCc3ccc(Cl)c(Cl)c3)nc2-c2ccc3c(cnn3C(F)F)c2)n1 [Example 28, N-(3,4-dichlorobenzyl)-4-(1-(difluoromethyl)-1H-indazol-5-yl)-5-(6-methyl-pyridin-2-yl)-1H-imidazol-2-amine]",10 to 100
3,"Cc1cccc(-c2[nH]c(NCc3ccc(F)c(F)c3)nc2-c2ccc3c(cnn3C(F)F)c2)n1 [Example 29, N-(3,4-difluorobenzyl)-4-(1-(difluoromethyl)-1H-indazol-5-yl)-5-(6-methyl-pyridin-2-yl)-1H-imidazol-2-amine]",10 to 100
4,"Cc1cccc(-c2[nH]c(NCc3cccc(F)c3)nc2-c2cnc3c(cnn3C)c2)n1 [Example 31, N-(3-fluorobenzyl)-4-(1-methyl-1H-pyrazolo[3,4-b]pyridin-5-yl)-5-(6-methyl-pyridin-2-yl)-1H-imidazol-2-amine]",< 10
5,"Cc1cccc(-c2[nH]c(NCc3cccc(F)c3)nc2-c2ccc3c(cnn3C)n2)n1 [Example 32, N-(3-fluorobenzyl)-4-(1-methyl-1H-pyrazolo[4,3-b]pyridin-5-yl)-5-(6-methyl-pyridin-2-yl)-1H-imidazol-2-amine]",> 100
6,"Cc1cccc(-c2[nH]c(NCc3cccc(F)c3)nc2-c2cc3cnn(C)c3cn2)n1 [Example 33, N-(3-fluorobenzyl)-4-(1-methyl-1H-pyrazolo[3,4-c]pyridin-5-yl)-5-(6-methyl-pyridin-2-yl)-1H-imidazol-2-amine]",< 10
7,"Cc1cccc(-c2[nH]c(NCc3cccc(F)c3F)nc2-c2ccc3c(cnn3C)c2)n1 [Example 35, N-(2,3-difluorobenzyl)-4-(1-methyl-1H-indazol-5-yl)-5-(6-methylpyridin-2-yl)-1H-imidazol-2-amine]",10 to 100
8,"Cc1cccc(-c2[nH]c(NCc3ccc(F)cc3F)nc2-c2ccc3c(cnn3C)c2)n1 [Example 36, N-(2,4-difluorobenzyl)-4-(1-methyl-1H-indazol-5-yl)-5-(6-methylpyridin-2-yl)-1H-imidazol-2-amine]",10 to 100

# The remaining lines, values ahead:
row,IC50 [nM],SMILES
1,10 to 100,"Cc1cccc(-c2[nH]c(NCc3cccc(C)c3F)nc2-c2ccc3c(cnn3C)c2)n1 [Example 17, N-(2-fluoro-3-methylbenzyl)-4-(1-methyl-1H-indazol-5-yl)-5-(6-methylpyridin-2-yl)-1H-imidazol-2-amine]"
2,< 10,"Cc1ccc(CNc2nc(-c3ccc4c(cnn4C)c3)c(-c3cccc(C)n3)[nH]2)c(F)c1 [Example 18, N-(2-fluoro-4-methylbenzyl)-4-(1-methyl-1H-indazol-5-yl)-5-(6-methylpyridin-2-yl)-1H-imidazol-2-amine]"
3,< 10,"Cc1cccc(-c2[nH]c(NCc3ccc(C)c(F)c3)nc2-c2ccc3c(cnn3C)c2)n1 [Example 19, N-(3-fluoro-4-methylbenzyl)-4-(1-methyl-1H-indazol-5-yl)-5-(6-methyl-pyridine-2-yl)-1H-imidazol-2-amine]"
4,> 100,"Cc1cccc(-c2[nH]c(NCc3cccc(F)c3)nc2-c2ccc3c(cnn3S(C)(=O)=O)c2)n1 [Example 22, N-(3-fluorobenzyl)-5-(6-methylpyridin-2-yl)-4-(1-(methylsulfonyl)-1H-indazol-5-yl)-1H-imidazol-2-amine]"
5,< 10,"Cc1cccc(-c2[nH]c(NCc3cccc(Cl)c3F)nc2-c2ccc3c(cnn3C)c2)n1 [Example 23, N-(3-chloro-2-fluorobenzyl)-4-(1-methyl-1H-indazol-5-yl)-5-(6-methylpyridin-2-yl)-1H-imidazol-2-amine]"
6,10 to 100,Cc1cccc(-c2[nH]c(NCc3cccc(Cl)c3F)nc2-c2ccc3c(cnn3C(F)F)c2)n1 [Example 27]
7,10 to 100,"Cc1cccc(-c2[nH]c(NCc3cccc(F)c3)nc2-c2cnc3[nH]ncc3c2)n1 [Example 38, N-(3-fluorobenzyl)-5-(6-methylpyridin-2-yl)-4-(1H-pyrazolo[3,4-b]pyridin-5-yl)-1H-imidazol-2-amine]"
